The subject of experiment [1] is pMT6. Briefly: Methylation and cyclization of structurally similar terpenoids by E. coli cell lysate overexpressing pMT6. In kind it is biochemical, Streptomyces blastmyceticus. The following applies: GFP lysate as control. As for the experimental part: Using E. coli cell lysate overexpressing pMT6, a range of structurally similar terpenoids for methylation and cyclization reaction was assayed (FIG. 21a). E. coli lysate overexpressing green fluorescence protein was used as a control. […] Citral was not stable and was reduced to geraniol in the presence of cell lysate. […] Compound identity was searched against the National Institute of Standards and Technology (NIST) library. […] Lastly, for the monoterpene ketone, geranylacetone, with saturated C7-C8 bond, multiple methylated products were detected based on the molecular ion.

For experiment [2], the target named is pMT7 (Streptomyces blastmyceticus, UniProt A0A077K7L1, A202L/L180A/L273V/S182E/Y200F/Y65F). The experiment is described as follows: biochemical. As for the experimental part:
(§1) It was calculated by dividing the pMT7 activity where no additive was added. […] It was calculated by dividing the pMT7 and pMT10 activity where no additive was added. […] All the purified enzyme reactions were done in triplicates. […] The bar chart represents the mean value of replicated reactions.
The steady-state kinetic parameters of pMT7 were determined (Table 3). […] Since pMT7 is an hexamer in solution^10, its oligomeric state before and after the reaction was examined.
(§2) Following enzyme purification, a 100 μl enzymatic reaction was setup with a final concentration of 0.5 mg/ml of enzyme, 40 mg/L psi-ionone, 0.2 mM SAM, 100 mM Tris (pH 7), 10 mM MgCl2 and 15 mM NaCl. The reaction was done in 0.2 ml PCR strips and incubated at 28° C., 1200 rpm overnight. Alongside, a control without enzyme (with 40% glycerol only) was included as negative control. The next day, cis-α-irone was extracted with 100 μl of ethyl acetate and 50 μl organic layer taken for GCMS analysis. For enzyme characterization, similar enzymatic reaction was performed, with varying concentration of psi-ionone (2-40 mg/L) and SAM (10-100 μM), and the reaction was stopped after 2 h incubation at 28° C. to ensure the enzymatic conversion is still within linear range.

Experiment [3] deals with pMT10 (Streptomyces blastmyceticus, UniProt A0A077K7L1, A202L/C156A/L180A/L273V/S182E/T91P/Y200F/Y65F). Briefly: biochemical. As for the experimental part: as §1, §2
Sequence of pMT10 (A0A077K7L1 entry or part of it Y65F/T91P/C156A/L180A/S182E/Y200F/A202L/L273V): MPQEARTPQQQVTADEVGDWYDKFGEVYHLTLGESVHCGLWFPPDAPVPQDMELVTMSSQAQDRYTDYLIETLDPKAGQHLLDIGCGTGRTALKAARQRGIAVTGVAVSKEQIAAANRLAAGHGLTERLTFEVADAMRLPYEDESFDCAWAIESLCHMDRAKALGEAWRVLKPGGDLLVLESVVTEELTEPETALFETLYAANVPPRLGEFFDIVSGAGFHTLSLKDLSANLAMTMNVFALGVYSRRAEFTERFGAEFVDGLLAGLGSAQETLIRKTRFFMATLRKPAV
For experiment [4], the target named is T1, Streptomyces blastmyceticus O-methyltransferase TleD (pMT1, SEQ ID No. 3) variant pMT10, Y200F S182E L273V L180A A202L Y65F C156A T91P, SEQ ID No. 12 (Streptomyces blastmyceticus, UniProt A0A077K7L1, A202L/C156A/L180A/L273V/S182E/T91P/Y200F/Y65F).
T1 sequence (A0A077K7L1 1-289 Y65F/T91P/C156A/L180A/S182E/Y200F/A202L/L273V): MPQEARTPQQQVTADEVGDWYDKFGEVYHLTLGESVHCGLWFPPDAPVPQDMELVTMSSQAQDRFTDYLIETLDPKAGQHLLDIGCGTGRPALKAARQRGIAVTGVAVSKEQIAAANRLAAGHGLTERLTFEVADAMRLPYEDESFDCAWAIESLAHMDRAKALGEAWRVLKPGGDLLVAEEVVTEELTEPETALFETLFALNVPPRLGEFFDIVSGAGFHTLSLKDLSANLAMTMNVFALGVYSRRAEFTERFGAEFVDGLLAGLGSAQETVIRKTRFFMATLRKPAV
The experiment is described as follows: Steady-state kinetics of purified pMT10. In kind it is biochemical. The following applies: pH 7, 28° C., 2 h, psi-ionone 2-40 mg/L, SAM 10-100 μM. How it is done: (§3) His-tag protein purification was carried out according to the manufacturer's instruction (Cube Biotech). For each enzyme, it was overexpressed in 200 ml of ZYM autoinduction media with 5 mM lactose at 20° C. for 36 hrs. Following that, cells were pelleted and resuspended with 10 ml of His-binding buffer (50 mM Tris, pH 8, 0.5M NaCl and 20 mM imidazole) supplemented with 1 mg/ml lysozyme and 3 U/ml of benzonase nuclease (Merck) and treated for 1 hour (hr) at 20° C., 300 rpm. The cells were further lysed by 2 cycles of freeze-thawing with freezing at −80° C. for 4 hrs and thawing at room temperature for 45 mins. The supernatant (soluble fraction) was obtained by centrifuging at 15,000 g for 30 mins at 4° C. […] Protein quantification and purity were determined through micro BCA assay (Pierce) and running SDS-PAGE, respectively.
(§4) To determine the purified enzyme kinetics and in vivo production, the reaction mixture was extracted with 0.5× or 1× volume of ethyl acetate and the organic phase was diluted appropriately before subjected to GCMS analysis. The samples were analyzed on an Agilent Intuvo 9000 GC system equipped with Agilent DB-WAX Ultra Inert Intuvo GC column (30 m×250 μm×0.25 μm) and Agilent 5977B mass spectrometry with high efficiency source. […] The concentration of psi-ionone and irone were calculated by interpolating with a standard curve prepared by synthetic standards.

Experiment [5] addresses T2, Streptomyces blastmyceticus O-methyltransferase TleD (pMT1, SEQ ID No. 3) variant pMT7, Y200F S182E L273V L180A A202L Y65F, SEQ ID No. 9 (Streptomyces blastmyceticus, UniProt A0A077K7L1, A202L/L180A/L273V/S182E/Y200F/Y65F).
T2 sequence (A0A077K7L1 1-289 Y65F/L180A/S182E/Y200F/A202L/L273V): T1 sequence (A0A077K7L1 1-289 Y65F/T91P/C156A/L180A/S182E/Y200F/A202L/L273V) with P91T, A156C
The experiment is described as follows: Steady-state kinetics of purified pMT7. In kind it is biochemical. The following applies: pH 7, 28° C., 2 h. As for the experimental part: as §3, §4

Where [6] appears, read: SAH analogues (0-200 μM) or excess α-irone supplemented.

Substitutions are numbered along the chain they refer to.

Usually IC50 stands for the point on the concentration scale where inhibition reaches its midpoint. Lower therefore signals greater potency in that assay. A word on the Km: it is the concentration of substrate that gives half-maximal velocity.

Sequence of pMT7 (A0A077K7L1 entry or part of it Y65F/L180A/S182E/Y200F/A202L/L273V): as the sequence (A0A077K7L1 entry or part of it Y65F/T91P/C156A/L180A/S182E/Y200F/A202L/L273V) above

Consider `CC(C)=CCCC(C)=CC=O` [Citral], for which the “methylated products in pMT6 reaction (SPME-GCMS)” value (shortened to “methylated products”) in experiment [1] is reported as “not stable”. In the case of `Nc1ncnc2c1ncn2[C@@H]1O[C@H](CSCC[C@H](N)C(=O)O)[C@@H](O)[C@H]1O` [SAH, S-adenosyl-L-homocysteine], the concentration for half-maximal inhibition (IC50) turned out to be 4.9 µM in experiment [2] and 3.1 µM in experiment [3]. In experiment [2] (2 μM SAH supplemented), the “effect on pMT7 activity” value is given as “led to a reduction in pMT7 activity”. Further, the “effect on pMT7 methyltransferase activity” value in experiment [2] (20 µM SAH supplemented) is “nearly abolished the methyltransferase activity”. For `C[S+](CC[C@H](N)C(=O)[O-])C[C@H]1O[C@@H](n2cnc3c(N)ncnc32)[C@H](O)[C@@H]1O` (stereo partly drawn) [SAM, S-adenosylmethionine], the Km turned out to be 30.5 ± 1.3 µM in experiment [4] and 54.6 µM in experiment [5] (psi-ionone 2-40 mg/L, SAM 10-100 μM). Turning to `Nc1ncnc2nc[nH]c12` [adenine], the “effect on pMT7 methyltransferase activity” value in experiment [2] (setting [6]) was “did not alter the methyltransferase activity significantly”. Same read-out and setting: the same measure for `Nc1ncnc2c1ncn2[C@@H]1O[C@H](CO)[C@@H](O)[C@H]1O` [adenosine]: “did not alter the methyltransferase activity significantly”. With `CC(C)=CCC/C(C)=C/CO` [geraniol], the “methylated products” value in experiment [1] was “detected methylated products”. Same read-out and setting: the same measure for `CC(=O)CC/C=C(\C)CCC=C(C)C` [geranylacetone]: “detected methylated products”. In the case of `N[C@@H](CCS)C(=O)O` [homocysteine], the “effect on pMT7 methyltransferase activity” value in experiment [2] (setting [6]) is given as “did not alter the methyltransferase activity significantly”. As for `C=CC(C)(O)CCC=C(C)C` (stereo not drawn) [linalool], the “methylated products” value in experiment [1] is given as “detected methylated products”.

On to `CC(=O)/C=C/C=C(\C)CCC=C(C)C` [psi-ionone], for which the kcat in experiment [5] (Table 3) was 4.4 ± 0.2 ×10^3 h^−1.

With `CC(=O)/C=C/C1C(C)=CCC(C)C1(C)C` (stereo not drawn) [α-irone], the “effect on pMT7 methyltransferase activity” value in experiment [2] (setting [6]) was “did not alter the methyltransferase activity significantly”.

These data come from patent publication US20240240209A1, “SYNTHESIS OF ENANTIOPURE CIS-A-IRONE FROM A RENEWABLE CARBON SOURCE” (Agency for Science, Technology and Research, priority 2021, published 2024).
